Reference: publication PMC2924402, “Insights into the Mechanism of Ligand Binding to Octopine Dehydrogenase from Pecten maximus by NMR and Crystallography” (PLoS ONE, 2010)

Assays:
[1] = biological target: T1, Octopine dehydrogenase (OcDH) (Pecten maximus, UniProt Q9BHM6); experiment: 1H-15N TROSY-HSQC NMR titration of OcDH saturated with […] NADH; type: binding
T1 construct: gene odh1; OcDH-His5, U-[15N] labeled

[2] = biological target: T1, Octopine dehydrogenase (OcDH); experiment: 1H-15N TROSY-HSQC NMR titration; also present in the OcDH/NADH/agmatine crystal structure; type: binding
[3] = biological target: T1, Octopine dehydrogenase (OcDH); experiment: 1H-15N TROSY-HSQC NMR titration; type: binding
[4] = biological target: T2, Octopine dehydrogenase (OcDH) (Pecten maximus, UniProt Q9BHM6); experiment: X-ray crystal structure ([…] Å, soak) of OcDH/NADH/agmatine; Ki from enzyme inhibition (Lineweaver-Burk); type: biochemical
T2 construct: gene odh1; OcDH-His5, residues 2–404 in the model
T2 sequence (Q9BHM6 1-399): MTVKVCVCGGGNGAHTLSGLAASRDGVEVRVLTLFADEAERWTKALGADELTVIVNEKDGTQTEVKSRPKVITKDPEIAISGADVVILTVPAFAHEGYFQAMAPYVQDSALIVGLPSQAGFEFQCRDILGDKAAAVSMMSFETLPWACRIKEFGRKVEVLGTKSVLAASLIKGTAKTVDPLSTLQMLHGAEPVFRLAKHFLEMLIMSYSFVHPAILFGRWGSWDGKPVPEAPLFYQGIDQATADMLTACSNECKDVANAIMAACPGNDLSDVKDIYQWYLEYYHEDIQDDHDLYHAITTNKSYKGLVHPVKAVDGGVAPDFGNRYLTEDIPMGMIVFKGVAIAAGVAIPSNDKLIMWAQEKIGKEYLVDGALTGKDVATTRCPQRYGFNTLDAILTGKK

## N=C(N)NCCC[C@H](N)C(=O)O [L-arginine]
[1]
  Kd: 4100 ± 310 µM

## NC(=O)C1=CN([C@@H]2O[C@H](COP(=O)(O)OP(=O)(O)OC[C@H]3O[C@@H](n4cnc5c(N)ncnc54)[C@H](O)[C@@H]3O)[C@@H](O)[C@H]2O)C=CC1 [NADH]
[2]
  Kd: 62 ± 7 µM

## NC(=O)c1ccc[n+]([C@@H]2O[C@H](COP(=O)([O-])OP(=O)(O)OC[C@H]3O[C@@H](n4cnc5c(N)ncnc54)[C@H](O)[C@@H]3O)[C@@H](O)[C@H]2O)c1 [NAD^+]
[3]
  Kd: 400 ± 50 µM

## N=C(N)NCCCCN [agmatine]
[4]
  Ki: 40000 ± 2000 µM
